The test deals with S. aureus (MRSA) biofilms. The test can be described thus: in vitro biofilm disruption assay, bacterial. Format: cell-based. To be noted: Staphylococcus aureus, 24 h.
The mark [1] stands for this setting: disruption, S. aureus, 1% amino acid, p<0.001, read-out: Reduce B Biofilm.

The text below walks through data of patent publication US12226386B2, “Compositions and methods for treating biofilms” (The Regents of the University of California, priority 2018, dated 2025).

Structures are written as SMILES. Where two headings read alike, the source gives them in different places.

Regarding `N[C@@H](CS)C(=O)O` [Cysteine, L-cysteine], the inhibition at 1 % under setting [1] is > 30%.

In the case of `N[C@@H](CCC(=O)O)C(=O)O` [Glutamic Acid, L-glutamic acid], the inhibition at 1 % (read-out: Reduce B Biofilm) was > 30%.

On to `N[C@@H](CC(=O)O)C(=O)O` [Aspartic Acid, L-aspartic acid], for which, under setting [1], the inhibition at 1 % was > 30%.
